{
  "source": "patent US8507269B2",
  "about": "“Calcium channel proteins and uses thereof” (CalciMedica, Inc., priority 2007, dated 2013)",
  "key": {"[1]": {"system": "endogenous SOCE in HEK-Zeo control cells", "conditions": "read-out: IC50 of inhibition of calcium entry, thapsigargin-mediated store depletion, readdition of external calcium", "protocol": "(§1) To test whether the […] entry pathway constitutively activated by STIM1 overexpression is pharmacologically similar to endogenous SOCE, HEK[STIM1] cells are pre-incubated with increasing doses of 2-APB and STIM1-induced Ca^2+ entry is measured."}, "[2]": {"system": "HEK[STIM1] cells (STIM1 overexpression)", "protocol": "as §1"}, "[3]": {"molecular_target": "T1, CRAC current in olf186-F+Stim transfectants (Drosophila melanogaster, UniProt Q9U6B8)", "T1 construct": "A cDNA clone, pAc5.1/olf186-F, encoding full-length Drosophila olf186-F-RB, was generated for transfection into S2 cells; expressed in transfected cells; host or cells: Drosophila S2 cells (transient, Nucleofector)", "T1 sequence (Q9U6B8 1-351)": "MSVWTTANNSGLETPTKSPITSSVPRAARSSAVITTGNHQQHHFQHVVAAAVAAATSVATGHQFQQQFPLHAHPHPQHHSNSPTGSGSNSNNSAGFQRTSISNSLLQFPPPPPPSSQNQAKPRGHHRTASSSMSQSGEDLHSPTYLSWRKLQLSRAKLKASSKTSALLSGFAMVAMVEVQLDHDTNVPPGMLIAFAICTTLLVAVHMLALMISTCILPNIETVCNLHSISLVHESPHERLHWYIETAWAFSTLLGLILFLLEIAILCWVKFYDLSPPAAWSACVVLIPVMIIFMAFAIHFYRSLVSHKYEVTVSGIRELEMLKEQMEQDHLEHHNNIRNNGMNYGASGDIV", "assay": "Whole-cell patch-clamp of Ca2+ current in olf186-F+Stim transfected S2 cells", "type": "cell-based", "protocol": "Whole-Cell Recording. Patch-clamp experiments were performed at room temperature in the standard whole-cell recording configuration, using a holding potential of −10 mV. […] To calculate current densities, peak current amplitudes were divided by membrane capacitance for each cell."}, "[4]": {"molecular_target": "STIM1 and Orai1 in HEK293 cells (Homo sapiens, UniProt Q96D31)", "sequence (Q96D31 whole entry)": "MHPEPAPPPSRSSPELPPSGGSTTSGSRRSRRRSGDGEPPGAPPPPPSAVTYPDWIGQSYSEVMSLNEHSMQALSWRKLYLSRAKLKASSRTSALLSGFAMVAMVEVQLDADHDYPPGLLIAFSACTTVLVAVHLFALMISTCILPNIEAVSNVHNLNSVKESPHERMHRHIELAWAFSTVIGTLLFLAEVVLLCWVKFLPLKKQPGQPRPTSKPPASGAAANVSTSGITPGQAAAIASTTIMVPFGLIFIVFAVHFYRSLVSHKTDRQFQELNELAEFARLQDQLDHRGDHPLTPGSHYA", "conditions": "HEK293 cells coexpressing STIM1 and Orai1; cited from earlier work"}, "[5]": {"molecular_target": "T2, Orai1/STIM1 ICRAC channel (Homo sapiens, UniProt Q96D31)", "T2 construct": "expressed in transfected cells", "T2 sequence (Q96D31 whole entry)": "as above", "assay": "Patch clamp (PatchXpress) of calcium currents in cells stably transfected with STIM1 and Orai1", "type": "cell-based", "from_the_text": "Isolated, stably transfected cells were monitored with patch clamp analysis (PatchExpress) to detect calcium currents with overexpressed, stably transfected STIM1 and Orai1 nucleic acids."}, "[6]": {"system": "colon cancer cells", "conditions": "cited from earlier work"}, "[7]": {"system": "Jurkat cells", "conditions": "cited from earlier work"}, "[8]": {"molecular_target": "T3, STIM1/Orai1 CRAC channel (Homo sapiens, UniProt Q96D31)", "T3 construct": "expressed in transfected cells", "T3 sequence (Q96D31 whole entry)": "as above", "assay": "FLIPR assay of Orai1/STIM1-dependent Ca2+ entry in stably transfected STIM1/Orai1 cells", "type": "cell-based", "protocol": "Cells are plated at 30K cells/50 uL media/well in PDL-coated 384-well plate (Greiner Cell Coat; VWR cat#82051-358) 24 hours before experiment. 20 μM Fluo-4-AM (Invitrogen cat#F-14201) are prepared, resuspended with 10 μl F-127, 20% pluronic solution in DMSO (Invitrogen cat#P3000MP), and added to 2.3 mL culture medium. Cells are loaded with dye by adding 5 μl of the 20 μM Fluo-4-AM solution to each well of the 384-well plate that already contained 50 μL of culture medium. The plates are kept in dark, RT, for approximately 1 hour. HBSS/1% HEPES/0.2 g/L MgCl2 was prepared and cells transferred to a plate washer to remove dye-loading solution from cells. The cells are washed with HBSS/1% HEPES/0.2 g/L MgCl2, being careful not to dislodge the cells. The final volume of buffer left on the cells should equal 40 μL. The cell plate is transferred to FLIPR monitoring instrument (Molecular Devices, Sunnyvale, Calif.), and 10 μL compound is added and incubated for 30 minutes. Data points (1/sec) are acquired prior to the addition of CaCl2 to establish basal readings. 5 μL 11 mM CaCl2 (1.0 mM CaCl2 final) is added, and the fluorescence read every second for 1 minute, then every 10 seconds for 14 minutes. […]\nRBL-2H3 cells plated in 384-well plates are loaded for 45 min with FLUO-4-AM (2 μM final concentration) in a Hanks-buffered salt solution. […] Fifteen minutes after addition of Tg, store-operated calcium entry is initiated by adding external Ca^2+ to a final concentration of 1.8 mM and the cells monitored for a further 10-15 minutes. Calcium levels are monitored throughout the assay using a FLIPR^384 (Molecular Devices fluorimetric imaging plate reader for high throughput screening).\nThe kinetic data from the FLIPR^384 are analyzed and stored in a relational database (ActivityBase; IDBS). Ten quantitative parameters are calculated that define various aspects of the store-operated calcium entry response. […]"}, "[9]": {"system": "Drosophila S2 cells", "assay": "Single-cell ratiometric fura-2 [Ca2+]i imaging of S2 cells", "type": "cell-based", "conditions": "control cells, 1 μM ionomycin in zero-Ca2+ solution, average", "protocol": "RNAi in Drosophila S2 Cells. RNAi experiments were adapted from the protocols described by Worby et al. Drosophila S2 cells (0.5×10^6) were seeded in T-25 flasks in 2 ml of complete S2 medium. The next day, medium was removed and replaced with 2 ml of serum-free S2 medium. Twenty micrograms of dsRNA was added, and cells were incubated at room temperature for 45 min with gentle rocking. Four milliliters of S2 medium was added, and cells were incubated for 5 days at 24° C. Cells then were harvested and either plated for single-cell Ca^2+ imaging and patch-clamp experiments or processed for RT-PCR analysis.\nSingle-Cell [Ca^2+]i imaging. Ratiometric [Ca^2+]i Imaging was performed as described in ref. 3, using solution recipes described in Table 3. Transfected cells were recognized by coexpressed enhanced GFP (EGFP), using filters to avoid contamination of Fura-2 fluorescence by bleedthrough of GFP fluorescence. Data were analyzed with METAFLUOR software (Universal Imaging, Downington, Pa.) and ORIGINPRO 7.5 software (OriginLab, Northampton, Mass.) and are expressed as means ±SEM.\nEffects of olf186-F Knockdown and Overexpression on Ca^2+ Influx and CRAC Currents in Single Cells. […]"}},
  "note": "Like-named read-outs stand apart in the source and are kept apart here.",
  "data": [
    {"compound": "NCCOB(c1ccccc1)c1ccccc1", "note": "[2-APB, 2-aminoethoxydiphenyl borate]", "values": [
      {"measurement": "IC50", "setting": "[1]", "result": 11.8, "unit": "µM"},
      {"measurement": "calcium entry at lower concentrations", "setting": "[2]; absence of store depletion, lower concentrations", "result": "potentiated"},
      {"measurement": "IC50", "setting": "[2]; read-out: IC50 of inhibition of calcium entry, thapsigargin-mediated store depletion, readdition of external calcium", "result": 10.5, "unit": "µM"},
      {"measurement": "IC50", "setting": "[2]; read-out: IC50 of inhibition of constitutive calcium entry, absence of store depletion", "result": 10.8, "unit": "µM"},
      {"measurement": "effect on enhanced Ca2+ currents", "setting": "[3]; 5 μM", "result": "potentiation of current before blocking"},
      {"measurement": "effect on enhanced Ca2+ currents", "setting": "[3]; 20 μM", "result": "blocked"},
      {"measurement": "store-operated Ca2+ entry", "setting": "[4]", "result": "completely blocked"},
      {"measurement": "effect on CRAC channel currents (FIG. 8)", "setting": "[5]", "result": "potentiation"}
    ]},
    {"compound": "Cc1nnsc1C(=O)Nc1ccc(-n2nc(C(F)(F)F)cc2C(F)(F)F)cc1", "note": "[BTP-2]", "values": [
      {"measurement": "SOCE", "setting": "[6]", "result": "inhibits"},
      {"measurement": "proliferation", "setting": "[6]", "result": "inhibits"},
      {"measurement": "SOCE", "setting": "[7]", "result": "inhibits"},
      {"measurement": "proliferation", "setting": "[7]", "result": "inhibits"}
    ]},
    {"compound": "O=C(Nc1scc(-c2ccc(Br)cc2)c1C(=O)O)c1cccc(F)c1", "note": "[Cmpd B]", "values": [
      {"measurement": "CRAC-channel mediated Ca2+ entry", "setting": "[8]", "result": "inhibit"},
      {"measurement": "IC50", "setting": "[8]; read-out: IC50 (inhibition of calcium inflow)", "result": 1.9, "unit": "µM"}
    ]},
    {"compound": "[Gd+3]", "note": "[Gd^3+]", "values": [
      {"measurement": "effect on enhanced Ca2+ currents", "setting": "[3]; 50 nM", "result": "blocked"}
    ]},
    {"compound": "O=C(Nc1scc(-c2ccc(Br)cc2)c1C(=O)O)c1ccc(F)cc1", "note": "[compound A]", "values": [
      {"measurement": "CRAC-channel mediated Ca2+ entry", "setting": "[8]", "result": "inhibit"}
    ]},
    {"compound": "C[C@H](CCC(=O)O)C[C@H](C)C[C@H](C)C(=O)/C=C(\\O)[C@H](C)C[C@H](C)C/C=C/[C@@H](C)[C@@H](O)[C@@H](C)[C@@H](O)C[C@@H]1CC[C@@](C)([C@H]2CC[C@@](C)([C@@H](C)O)O2)O1", "note": "[ionomycin]", "values": [
      {"measurement": "peak of Ca2+ release transient", "setting": "[9]", "result": 200, "unit": "nM"}
    ]}
  ]
}
